Test results: patent US11957716B2 (Immatics Biotechnologies GmbH, priority 2021, dated 2024)

Tests used:
HLA-A*03:01 = HLA-A*03:01 (Homo sapiens, UniProt P04439); assay: MHC binding assay, UV-ligand exchange ELISA; settings: peptide exchange yield, binding to HLA-A*03:01
Description: Candidate peptides for T cell based therapies according to the present invention were further tested for their MHC binding capacity (affinity). The individual peptide-MHC complexes were produced by UV-ligand exchange, where a UV-sensitive peptide is cleaved upon UV-irradiation and exchanged with the peptide of interest as analyzed. Only peptide candidates that can effectively bind and stabilize the peptide-receptive MHC molecules prevent dissociation of the MHC complexes. To determine the yield of the exchange reaction, an ELISA was performed based on the detection of the light chain (β2m) of stabilized MHC complexes. The assay was performed as generally described in Rodenko et al. (Rodenko et al., 2006).
96 well MAXISorp plates (NUNC) were coated over night with 2 μg/ml streptavidin in PBS at room temperature, washed 4× and blocked for 1 h at 37° C. in 2% BSA containing blocking buffer. Refolded HLA-A*02:01/MLA-001 monomers served as standards, covering the range of 15-500 ng/ml. Peptide-MHC monomers of the UV-exchange reaction were diluted 100-fold in blocking buffer. Samples were incubated for 1 h at 37° C., washed four times, incubated with 2 μg/ml HRP conjugated anti-82m for 1 h at 37° C., washed again and detected with TMB solution that is stopped with […]. Absorption was measured at 450 nm. Candidate peptides that show a high exchange yield (preferably higher than 50%, most preferred higher than 75%) are generally preferred for a generation and production of antibodies or fragments thereof, and/or T cell receptors or fragments thereof, as they show sufficient avidity to the MHC molecules and prevent dissociation of the MHC complexes.

[1] = test system: HLA-A*01:01, HLA-A*02:01, HLA-A*03:01, HLA-A*24:02, HLA-B*07:02, HLA-B*08:01 and HLA-B*44:02; assay: HLA alleles the peptides bind to (Table 7); format: binding, human; settings: allotype from the group HLA-A*01:01, HLA-A*02:01, HLA-A*03:01, HLA-A*24:02, HLA-B*07:02, HLA-B*08:01, HLA-B*44:02
Description: However, due to similarities in binding pattern such as the relevant anchoring positions some peptides bind to more than one allele, such an overlap is most likely, but not limited to, HLA-A*01 binding peptides also binding to HLA-B*15, HLA-A*03 binding peptides also binding to HLA-A*11, HLA-B*07 binding peptides also binding to HLA-B*35 and HLA-B*51.

Substance	Peptide exchange (HLA-A*03:01)	Binders (HLA alleles the peptides according to the invention bind to) [1]
1 (AILAPPAILK; listed as Homo sapiens) [compound 1]	++++ (≥75% = ++++)	HLA-A*03:01
2 (GTVFVLLSK; listed as Homo sapiens) [compound 2]	++ (≥20% = ++)	HLA-A*03:01
8 (VIYNQTLMK; listed as Homo sapiens) [compound 8]	++++ (≥75% = ++++)	HLA-A*03:01
17 (MVNWSLTNK; listed as Homo sapiens) [compound 17]	++++ (≥75% = ++++)	HLA-A*03:01
19 (RILEVVRQPK; listed as Homo sapiens) [compound 19]	++++ (≥75% = ++++)	HLA-A*03:01
20 (ILAPPAILK; listed as Homo sapiens) [compound 20]	++++ (≥75% = ++++)	HLA-A*03:01
21 (MLSAQFILK; listed as Homo sapiens) [compound 21]	++++ (≥75% = ++++)	HLA-A*03:01
22 (RVIEVVMNSK; listed as Homo sapiens) [compound 22]	++++ (≥75% = ++++)	HLA-A*03:01
24 (LIYIPTNSIYK; listed as Homo sapiens) [compound 24]	++++ (≥75% = ++++)	HLA-A*03:01
25 (GVCSTLTIK; listed as Homo sapiens) [compound 25]	++++ (≥75% = ++++)	HLA-A*03:01
28 (ATLQAVTLYKK; listed as Homo sapiens) [compound 28]	++++ (≥75% = ++++)	HLA-A*03:01
29 (GTFIAPVMK; listed as Homo sapiens) [compound 29]	++++ (≥75% = ++++)	HLA-A*03:01
34 (LLFKGLMWK; listed as Homo sapiens) [compound 34]	++++ (≥75% = ++++)	HLA-A*03:01
35 (SLATAISAK; listed as Homo sapiens) [compound 35]	+++ (≥50% = +++)	HLA-A*03:01
37 (RLYSGSSFLY; listed as Homo sapiens) [compound 37]	++++ (≥75% = ++++)	HLA-A*03:01
38 (AVVSHFILY; listed as Homo sapiens) [compound 38]	+++ (≥50% = +++)	HLA-A*03:01
44 (SLFPYFLNK; listed as Homo sapiens) [compound 44]	++++ (≥75% = ++++)	HLA-A*03:01
50 (KTIDLVIVR; listed as Homo sapiens) [compound 50]	++++ (≥75% = ++++)	HLA-A*03:01
51 (SVFSLVHLFDK; listed as Homo sapiens) [compound 51]	++++ (≥75% = ++++)	HLA-A*03:01
53 (TTLENLPQK; listed as Homo sapiens) [compound 53]	+++ (≥50% = +++)	HLA-A*03:01
61 (GLIAFAIFK; listed as Homo sapiens) [compound 61]		HLA-A*03:01
70 (LIAGLIFLK; listed as Homo sapiens) [compound 70]	+++ (≥50% = +++)	HLA-A*03:01
72 (GSCSFALSR; listed as Homo sapiens) [compound 72]	++++ (≥75% = ++++)	HLA-A*03:01
75 (TTAAVYILK; listed as Homo sapiens) [compound 75]	+++ (≥50% = +++)	HLA-A*03:01

Substance	Peptide exchange (HLA-A*03:01)	Binders (HLA alleles the peptides according to the invention bind to) [1]
79 (SLFRLSISF; listed as Homo sapiens) [compound 79]		HLA-A*24:02
81 (KLIAGLIFLK; listed as Homo sapiens) [compound 81]	+++ (≥50% = +++)	HLA-A*03:01
88 (KVGAVVHLK; listed as Homo sapiens) [compound 88]	+++ (≥50% = +++)	HLA-A*03:01
90 (LALLGAPPPK; listed as Homo sapiens) [compound 90]	++ (≥20% = ++)	HLA-A*03:01
91 (RIVTYIVAK; listed as Homo sapiens) [compound 91]	+++ (≥50% = +++)	HLA-A*03:01
94 (AVFLGNPSNQK; listed as Homo sapiens) [compound 94]	++++ (≥75% = ++++)	HLA-A*03:01
101 (ATNSFLLIK; listed as Homo sapiens) [compound 101]	++++ (≥75% = ++++)	HLA-A*03:01
104 (GSLQTLPPK; listed as Homo sapiens) [compound 104]	+++ (≥50% = +++)	HLA-A*03:01
107 (SVISVLTTPK; listed as Homo sapiens) [compound 107]	++++ (≥75% = ++++)	HLA-A*03:01
112 (ETYGTFVLR; listed as Homo sapiens) [compound 112]	+++ (≥50% = +++)	HLA-A*03:01
119 (VLHGLLFTL; listed as Homo sapiens) [compound 119]		HLA-A*02:01
125 (ALAQGANLK; listed as Homo sapiens) [compound 125]	+++ (≥50% = +++)	HLA-A*03:01
127 (TVATQVATSK; listed as Homo sapiens) [compound 127]	+++ (≥50% = +++)	HLA-A*03:01
128 (MTFVPLLAR; listed as Homo sapiens) [compound 128]	++++ (≥75% = ++++)	HLA-A*03:01
138 (RTLPLEGSPK; listed as Homo sapiens) [compound 138]	+++ (≥50% = +++)	HLA-A*03:01
143 (AVLGALLRH; listed as Homo sapiens) [compound 143]	++++ (≥75% = ++++)	HLA-A*03:01
144 (IIVPSFYK; listed as Homo sapiens) [compound 144]	+++ (≥50% = +++)	HLA-A*03:01
146 (KVLVDFLLK; listed as Homo sapiens) [compound 146]	+++ (≥50% = +++)	HLA-A*03:01
148 (SVYMATTLK; listed as Homo sapiens) [compound 148]	++++ (≥75% = ++++)	HLA-A*03:01
149 (SMNSKALRWK; listed as Homo sapiens) [compound 149]	+++ (≥50% = +++)	HLA-A*03:01
172 (LLYKTLIIL; listed as Homo sapiens) [compound 172]		HLA-A*02:01
176 (AFLLSLISL; listed as Homo sapiens) [compound 176]		HLA-A*24:02
197 (HHTQLVFVF; listed as Homo sapiens) [compound 197]		HLA-A*24:02
211 (VVTIVMHIYK; listed as Homo sapiens) [compound 211]		HLA-A*03:01
